System: KRAS patient-derived spheroids with HUVEC/MSC, viability
Test: Anticancer human tumor 323965-272-R-J2-PDC patient-derived pancreatic carcinoma cell line growth inhibition [KRAS2]
Details: for IC50: curve of first compound; for viability, T/C: stronger effect = lower value
Method in brief: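 Combination screen of spheroid viability in tumor-cell co-cultures with endothelial (HUVEC) and mesenchymal stem cell stroma. Each agent was tested in half-log dilutions, topping at clinical Cmax or at 10 microM without a known Cmax.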

[1] = second compound 0.1 µM, first compound 0.0316 µM
[2] = second compound 0.1 µM, first compound 0.1 µM
[3] = second compound 0.1 µM, first compound 0.316 µM
[4] = second compound 0.1 µM, first compound 1 µM
[5] = second compound 0.1 µM, first compound 3.16 µM
[6] = second compound 0.1 µM, first compound 10 µM
[7] = second compound 0.316 µM, first compound 0.0316 µM
[8] = second compound 0.316 µM, first compound 0.1 µM
[9] = second compound 0.316 µM, first compound 0.316 µM
[10] = second compound 0.316 µM, first compound 1 µM
[11] = second compound 0.316 µM, first compound 3.16 µM
[12] = second compound 0.316 µM, first compound 10 µM
[13] = second compound 1 µM, first compound 0.0316 µM
[14] = second compound 1 µM, first compound 0.1 µM
[15] = second compound 1 µM, first compound 0.316 µM
[16] = second compound 1 µM, first compound 1 µM
[17] = second compound 1 µM, first compound 3.16 µM
[18] = second compound 1 µM, first compound 10 µM
[19] = second compound 3.16 µM, first compound 0.0316 µM
[20] = second compound 3.16 µM, first compound 0.1 µM
[21] = second compound 3.16 µM, first compound 0.316 µM
[22] = second compound 3.16 µM, first compound 1 µM
[23] = second compound 3.16 µM, first compound 3.16 µM
[24] = second compound 3.16 µM, first compound 10 µM
[25] = second compound 10 µM, first compound 0.0316 µM
[26] = second compound 10 µM, first compound 0.1 µM
[27] = second compound 10 µM, first compound 0.316 µM
[28] = second compound 10 µM, first compound 1 µM
[29] = second compound 10 µM, first compound 3.16 µM
[30] = second compound 10 µM, first compound 10 µM
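Note: spheroids exposed to agents for 7 days.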
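Throughout, for viability, T/C: 100% = DMSO vehicle control viability.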

SMILES	IC50 (second compound 0.1 µM) [µM]	IC50 (second compound 0.316 µM) [µM]	IC50 (second compound 1 µM) [µM]	IC50 (second compound 3.16 µM) [µM]	IC50 (second compound 10 µM) [µM]	viability, T/C [1] [%]	viability, T/C [2] [%]	viability, T/C [3] [%]	viability, T/C [4] [%]	viability, T/C [5] [%]	viability, T/C [6] [%]	viability, T/C [7] [%]	viability, T/C [8] [%]	viability, T/C [9] [%]	viability, T/C [10] [%]	viability, T/C [11] [%]	viability, T/C [12] [%]	viability, T/C [13] [%]	viability, T/C [14] [%]	viability, T/C [15] [%]	other results
COC(=O)c1ccc2c(C(=Nc3ccc(N(C)C(=O)CN4CCN(C)CC4)cc3)c3ccccc3)c(O)[nH]c2c1 + CNCc1ccccc1-c1csc(C(C)Nc2nc(C)nc3cc(OC)c(OC)cc23)c1	> 10	> 10	> 10	> 10	< 0.0316	94.9	90	102	94.2	95.7	89.2	90.6	88.4	97	98.2	94.3	86.5	90.3	90.8	85.7	viability, T/C [16]: 79.6%; viability, T/C [17]: 93.7%; viability, T/C [18]: 90.4%; viability, T/C [19]: 102%; viability, T/C [20]: 105%; viability, T/C [21]: 99.6%; viability, T/C [22]: 103%; viability, T/C [23]: 90%; viability, T/C [24]: 88.6%; viability, T/C [25]: 0.33%; viability, T/C [26]: 1.26%; viability, T/C [27]: 0.33%; viability, T/C [28]: 0.3%; viability, T/C [29]: 0.44%; viability, T/C [30]: 0.35%
COc1cc(Nc2ncc3c(n2)-c2ccc(Cl)cc2C(c2c(F)cccc2OC)=NC3)ccc1C(=O)O + CNCc1ccccc1-c1csc(C(C)Nc2nc(C)nc3cc(OC)c(OC)cc23)c1	0.128	0.0926	0.0964	> 10	< 0.0316	80.2	52.9	32	39.3	55.5	63.5	78.8	50.2	33.6	35.6	52.3	55.2	85.6	51	31.9	viability, T/C [16]: 37.9%; viability, T/C [17]: 51.1%; viability, T/C [18]: 60%; viability, T/C [19]: 88.2%; viability, T/C [20]: 36.9%; viability, T/C [21]: 17.9%; viability, T/C [22]: 39.5%; viability, T/C [23]: 63.3%; viability, T/C [24]: 64.6%; viability, T/C [25]: 0.29%; viability, T/C [26]: 0.17%; viability, T/C [27]: 0.16%; viability, T/C [28]: 0.2%; viability, T/C [29]: 0.35%; viability, T/C [30]: 0.26%
O=C(c1cc(Cc2n[nH]c(=O)c3ccccc23)ccc1F)N1CCN(C(=O)C2CC2)CC1 + CNCc1ccccc1-c1csc(C(C)Nc2nc(C)nc3cc(OC)c(OC)cc23)c1	> 10	> 10	> 10	8.84	< 0.0316	98.7	93.1	97.8	93.6	89	57.1	94.9	91	98.4	89.7	86.2	51.5	92	93.5	84.5	viability, T/C [16]: 86.3%; viability, T/C [17]: 83.3%; viability, T/C [18]: 52.9%; viability, T/C [19]: 102%; viability, T/C [20]: 102%; viability, T/C [21]: 96.4%; viability, T/C [22]: 98.8%; viability, T/C [23]: 92.5%; viability, T/C [24]: 44.8%; viability, T/C [25]: 6.59%; viability, T/C [26]: 0.4%; viability, T/C [27]: 2.23%; viability, T/C [28]: 0.39%; viability, T/C [29]: 0.34%; viability, T/C [30]: 0.82%

Reference: PubChem BioAssay AID1963869 (Molecular Pharmacology Branch, DTP, NCI, 2024)
